Tests used:
[1] = test system: HT-29 human colon cancer cell line; conditions: HT-29 tumor xenografts, U.S. Pat. No. 6,620,843, cited from earlier work
[2] = test system: Jurkat human T lymphocyte cell line; test: Annexin V apoptosis assay; assay type: cell-based; conditions: 24 hours, compound pre-incubated in human serum 48 hours, FIG. 1
Experimental: (§1) Pooled human serum was stored in aliquots at −80° C. Test compounds were added at 20 mM to thawed human serum in 1.5 ml microfuge tubes and incubated at 37° C. in a water bath for 48 hours. The test samples were placed on ice until dilution for the bioassay. Controls consisted of the compounds incubated in complete tissue culture medium (RPMI 1640 medium plus 5% heat-inactivated fetal calf serum, 1% HEPES, 1% pen/strep, 1% glutamine) rather than human serum.
Test samples (incubated in human serum as described in section A) were diluted to 1 mM in complete tissue culture medium. Aliquots were placed in microculture plates and serial dilutions were prepared so that the final concentration would encompass the range of 2 to 6,000 nM with half-log increments. […]
After 24 hours, the plates were centrifuged to pellet the cells, and the cells were washed twice with 2% heat-inactivated fetal calf serum in PBS. […] The contents of the wells were individually transferred into test tubes, and apoptosis was analyzed using a FACSCalibur flow cytometer (BD Immunocytometry Systems, San Jose, Calif.). Cells positive for Annexin V binding were considered to be apoptotic, and the data were calculated as percent apoptotic cells. […]

[3] = test system: IL-2 production by Jurkat cells; test: IL-2 production assay; assay type: cell-based; conditions: Jurkat cells stimulated with anti-CD3 antibody and PMA, 24 hours; compound pre-incubated in human serum; FIG. 2
Experimental: as §1
Test samples, incubated in human serum as described in Example 2A, were diluted to 1 mM in complete tissue culture medium. Aliquots were placed in microculture plates that had been coated with anti-CD3 antibody (used to stimulate the production of IL-2 by Jurkat cells), and serial dilutions were prepared so that the final concentration would encompass the range of 0.001 to 10,000 nM in log increments. […] The stored supernatants were analyzed for human IL-2 concentration using the Luminex 100 (Luminex Corporation, Austin, Tex.), Luminex microspheres coupled with anti-IL-2 capture antibody, and fluorochrome-coupled anti-IL-2 detection antibody. The data were expressed as ng/ml of IL-2. […]

Structure (SMILES)	tumor regression [1]	tumor growth inhibition ([1]; in comparison to 5-FU and CPT-11)	induction of apoptosis (percent apoptotic cells, Annexin V) [2]	inhibition of IL-2 production [3]
CC(C)[C@]12O[C@H]1[C@@H]1O[C@]13[C@]1(O[C@H]1C[C@H]1C4=C(CC[C@@]13C)C(=O)OC4)[C@@H]2OC(=O)CCC(=O)O [triptolide 14-succinate]	induced tumor regression	strongly inhibited tumor growth		
CC(C)[C@]12O[C@H]1[C@@H]1O[C@]13[C@]1(O[C@H]1C[C@H]1C4=C(CC[C@@]13C)C(=O)OC4)[C@]2(C)O [PG670, 14-C-methyltriptolide]			dose-dependent induction of apoptosis	inhibition of IL-2 production
